Key:
[1] = system: FKB-3 (DNA, aptamer) CGAGCATAGGCAGAACTTACCACACAGCGTACCTCGTAGCCATGCGCCGTTGGGTCGTAAGAGCGAGTCATTC; experiment: gel elution assay; conditions: 20 mM NaCl, 0.5 mM MgCl2; for binding: 10 mM Tris-HCl pH 7.4, displacement from cDNA-bio
[2] = system: FKB-2 (DNA, aptamer) CGAGCATAGGCAGAACTTACCACGAGGACGGGTCAGTGCGTTAGGTGCCCACAGTCGTAAGAGCGAGTCATTC; experiment: gel elution assay; conditions: 20 mM NaCl, 0.5 mM MgCl2; for binding: 10 mM Tris-HCl pH 7.4, displacement from cDNA-bio
[3] = system: FKB-1 (DNA, aptamer) CGAGCATAGGCAGAACTTACCACCAAGTGAGGGTGTACGGTGGCTTACGCTTGGTCGTAAGAGCGAGTCATTC; experiment: gel elution assay; conditions: 20 mM NaCl, 0.5 mM MgCl2; for binding: 10 mM Tris-HCl pH 7.4, displacement from cDNA-bio, tested at 100 µM
[4] = system: FKB-S-5'FAM (DNA, aptamer) CTTACCACCAAGTGAGGGTGTACGGTGGCTTACGCTTGGTCGTAAG; experiment: microscale thermophoresis; conditions: 20 mM NaCl, 0.5 mM MgCl2; 10 mM Tris-HCl pH 7.4, 5% DMSO, 0.05% Tween-20
[5] = system: FKB-S (DNA, aptamer) CTTACCACCAAGTGAGGGTGTACGGTGGCTTACGCTTGGTCGTAAG; experiment: AuNP aggregation colorimetric assay; conditions: NaCl (20 µL of 400 mM added after compound), room temperature, indirect readout
[6] = system: FKB-1-5'FAM (DNA, aptamer) CGAGCATAGGCAGAACTTACCACCAAGTGAGGGTGTACGGTGGCTTACGCTTGGTCGTAAGAGCGAGTCATTC; experiment: microscale thermophoresis; conditions: 20 mM NaCl, 0.5 mM MgCl2; 10 mM Tris-HCl pH 7.4, 5% DMSO, 0.05% Tween-20
[7] = 10 mM Tris-HCl pH 7.4, room temperature, displaced from cDNA-bio, apparent

Q: What does the source list for COc1cc(O)c(C(=O)/C=C/c2ccc(O)cc2)c(OC)c1?
A: binding [1]: weak; binding [2]: weak; binding [3]: no; binding [4]: weak

Q: For COc1cc(O)c(C(=O)/C=C/c2ccccc2)c(OC)c1, which KD [1, 7] is on record?
A: The KD was 40.5 µM.

Q: What about the binding ([5]; FKB 0-5 μM) of the same compound?
A: Its binding is “yes”.

Q: What about the KD [2, 7] of the same compound?
A: Its KD is 9.97 µM.

Q: And the KD [6]?
A: The KD was 1.45 µM.

Q: And the KD [3, 7]?
A: The KD was 2.87 µM.

Q: What about the KD [4] of the same compound?
A: The KD was 280 nM.

Q: What does the source list for COc1ccc(/C=C/C(=O)c2c(O)cc(OC)cc2OC)cc1?
A: binding [1]: weak; binding [2]: weak; binding [3]: no; binding [4]: weak

Q: Which binding [3] does the source give for O=C(/C=C/c1ccc(O)cc1)c1ccc(O)cc1O here?
A: The binding was “no”.

Q: For O=C1c2cccc(O)c2C(=O)c2c(O)cc(CO)cc21, which binding [3] is on record?
A: The binding was “no”.

Q: What does the source list for O=c1c(O)c(-c2cc(O)c(O)c(O)c2)oc2cc(O)cc(O)c12?
A: binding [5]: no; binding [3]: no

Q: O=c1c(O)c(-c2ccc(O)c(O)c2)oc2cc(O)cc(O)c12 was tested. Which binding [5] did it give?
A: The binding was “no”.

Q: What about the binding [3] of the same compound?
A: Its binding is “no”.
